{"source": "patent US8993717B2", "about": "“Gadd45beta targeting agents” (Imperial Innovations Limited, priority 2009, dated 2015)", "key": {"[1]": {"test_system": "U266, KMS-11, NCI-H929, ARH-77, JJN-3, KMS-12, KMS-18, KMS-27 cells", "experiment": "[3H]thymidine incorporation assay, panel of 8 sensitive multiple myeloma cell lines", "type": "cell-based, human", "details": "treatment for 144 hrs; read-out: IC50s ranging over the sensitive multiple myeloma cell lines", "method": "Cultures of multiple myeloma cells and treatments with Z-DTPs were carried out as described in Example 8 (see below). The effects of Z-DTPs on the survival/proliferation of multiple myeloma cells were evaluated by the use of [^3H]thymidine) incorporation assays, performed as also described in Example 8. The amount of cell proliferation measured with each of the Z-DTPs' concentrations used and with the untreated cultures (i.e. cultures incubated with medium alone), was expressed as counts per minute (c.p.m.)—which directly correlate with the extent of cell proliferation. All experiments were performed in triplicate."}, "[2]": {"test_system": "22 resistant tumour cell lines", "experiment": "[3H]thymidine incorporation assay in a panel of 22 resistant tumour cell lines", "details": "100 μM, 144 hours", "method": "In these latter assays, the effects of Z-DTPs, Ac-DTPs and Z-LTPs on the survival/proliferation of tumour cell lines was investigated by measuring DNA synthesis using standard tritiated thymidine ([^3H]thymidine; [^3H]-TdR) uptake assays. In the analyses shown, cells were incubated for 24, 72, 120 or 144 hrs at 37° C. in the presence or absence of control or bioactive tetrapeptides, as indicated, then subjected to an additional incubation for 18 hrs with [^3H]-TdR (0.037 MBq/well, equivalent to […]). Cells were subsequently harvested onto glass fibre filter mats using a 96-well plate automated cell harvester, after which scintillation fluid was added, and [^3H]thymidine incorporation measured by liquid scintillation spectroscopy on a beta counter. The results are expressed as the percentages of the counts per minute (c.p.m.) (directly correlating with the extent of cell proliferation) measured with tetrapeptide-treated cultures relative to the c.p.m. measured with the corresponding cultures incubated with medium alone (untreated cells). All experiments were performed in triplicate."}, "Solubility": {"experiment": "Solubility", "type": "physicochemical", "details": "result in words"}, "Gadd45β/MKK7 complex": {"target": "T1, Gadd45β/MKK7 complex (Homo sapiens, UniProt O14733, S271D/T275D)", "T1 construct": "His6; made in house; host or cells: E. coli (MKK7KD)", "T1 sequence (O14733 101-405 isoform O14733-3 S287D/T291D limits assumed)": "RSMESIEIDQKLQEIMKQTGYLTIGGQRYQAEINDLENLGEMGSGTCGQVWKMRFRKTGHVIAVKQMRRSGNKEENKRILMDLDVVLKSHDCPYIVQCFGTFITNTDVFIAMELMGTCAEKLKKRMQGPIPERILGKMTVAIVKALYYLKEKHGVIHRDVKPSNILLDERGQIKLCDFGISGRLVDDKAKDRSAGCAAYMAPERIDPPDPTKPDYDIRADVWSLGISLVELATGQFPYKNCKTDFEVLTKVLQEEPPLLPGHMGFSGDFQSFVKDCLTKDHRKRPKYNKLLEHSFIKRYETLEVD", "experiment": "Surface Plasmon Resonance, preformed Gadd45β/MKK7KD complex", "type": "binding", "method": "(§1) To determine how DTPs bind to the Gadd45 β/MKK7 complex, experiments were performed with a Biacore3000 SPR instrument (GE Healthcare, Milan, Italy), using 4-channels CM5 sensorchips (GE Healthcare, Milan, Italy). Full length human Gadd45β was prepared and purified as described in the reference by Tornatore L., et al. (2008). J Mol Biol; 378:97-111. […] The protein was purified to homogeneity by two subsequent steps of affinity chromatography (Ni-NTA support) and gel filtration (Superdex G75), and then characterized by SDS-PAGE, LC-MS to verify identity and purity, and by Circular Dichroism to assess folding.\n(§2) MKK7KD was immobilized on the Biacore sensorchip via classical EDC/NHS coupling chemistry at pH 5 (protein pI, ˜9) at a flow rate of 5 uL/min An immobilization level of about 8000 Response Units was achieved. Gadd45β, which is an intrinsically acidic protein with a pI of about 4.5, was immobilized at pH 3.5 (6000 RU immobilization levels) on a separate channel. The residual reactive groups on both the Gadd45β and MKK7KD channels were finally inactivated by treatment with ethanolamine. On another channel the same procedure of activation with EDC/NHS and inactivation with ethanolamine was performed. […]"}, "Gadd45β": {"target": "T2, Gadd45β (Homo sapiens, UniProt O75293)", "T2 construct": "made in house", "T2 sequence (O75293 1-160)": "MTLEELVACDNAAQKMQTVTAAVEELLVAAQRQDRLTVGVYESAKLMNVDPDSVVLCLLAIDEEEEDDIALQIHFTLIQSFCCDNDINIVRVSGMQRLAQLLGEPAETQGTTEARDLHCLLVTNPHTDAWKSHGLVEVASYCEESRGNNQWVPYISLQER", "experiment": "Surface Plasmon Resonance, immobilized Gadd45β", "type": "binding", "details": "1 nM to 10 μM", "method": "as §1, §2"}, "[3]": {"target": "T3, kinase domain of MKK7 (MKK7KD) (Homo sapiens, UniProt O14733, S271D/T275D)", "T3 construct": "His6; made in house; host or cells: E. coli", "T3 sequence (O14733 101-405 isoform O14733-3 S287D/T291D)": "T1 sequence (O14733 101-405 isoform O14733-3 S287D/T291D limits assumed)", "experiment": "Surface Plasmon Resonance, immobilized MKK7KD", "type": "binding", "details": "1 nM to 10 μM", "method": "as §1, §2"}, "CaCO2": {"test_system": "CaCO2", "experiment": "CaCO2 assays", "type": "in vitro ADME", "details": "data not shown"}}, "note": "Square brackets hold non-standard residues; d marks the D form. Peptide text beside a SMILES is read from it. * marks the point of attachment. Cbz = O=C(OCc1ccccc1)*"}
{"compound": "NC(=O)[C@@H](Cc1ccccc1)NC(=O)[C@@H](Cc1c[nH]cn1)NC(=O)[C@@H](CC(=O)O)NC(=O)[C@@H](Cc1ccc(O)cc1)NC(=O)OCc1ccccc1", "note": "[Compound 1, Z-Tyr-Asp-His-Phe-NH2] (Cbz-[dY][dD][dH][dF]-NH2)", "values": [{"measurement": "IC50", "setting": "[1]", "value": "10.1 to 4900", "unit": "nM"}]}
{"compound": "N=C(N)NCCC[C@@H](NC(=O)[C@@H](CCC(=O)O)NC(=O)[C@@H](Cc1ccc(O)cc1)NC(=O)OCc1ccccc1)C(=O)N[C@H](Cc1ccccc1)C(N)=O", "note": "[Compound 9, Z-D-Tyr-D-Glu-D-Arg-D-Phe-NH2] (Cbz-[dY][dE][dR][dF]-NH2)", "values": [{"measurement": "cytotoxicity in resistant tumour cell lines", "setting": "[2]", "value": "no cytotoxicity"}, {"measurement": "solubility", "setting": "Solubility", "value": "high solubility"}]}
{"compound": "CC(=O)N[C@H](Cc1ccc(O)cc1)C(=O)N[C@H](CCCNC(=N)N)C(=O)N[C@H](Cc1ccccc1)C(N)=O", "note": "[Compound 17, Ac-D-Tyr-D-Arg-D-Phe-NH2] (Ac-[dY]-[dR]-[dF]-NH2)", "values": [{"measurement": "effect on preformed Gadd45β/MKK7KD complex", "setting": "Gadd45β/MKK7 complex; injected at 10 nM or 100 nM during dissociation phase", "value": "induced a rapid dissociation of the Gadd45β/MKK7KD complex"}, {"measurement": "binding to preformed Gadd45β/MKK7KD complex", "setting": "Gadd45β/MKK7 complex; injected at higher concentrations (e.g. 1 μM)", "value": "dose-response binding and dissociation curves were recorded"}, {"measurement": "binding to Gadd45β in isolation", "setting": "Gadd45β", "value": "does not bind"}, {"measurement": "binding to MKK7KD in isolation", "setting": "[3]", "value": "does not bind"}]}
{"compound": "CC(=O)N[C@H](Cc1ccc(O)cc1)C(=O)N[C@H](CCC(=O)O)C(=O)N[C@H](CCCNC(=N)N)C(=O)N[C@H](Cc1ccccc1)C(N)=O", "note": "[DTP2, Acetyl-(D-Tyr)-(D-Glu)-(D-Arg)-(D-Phe)-NH2] (Ac-[dY][dE][dR][dF]-NH2)", "values": [{"measurement": "cellular permeability", "setting": "CaCO2", "value": "low cellular permeability"}]}
